Assay results from patent US11220491B2, “Photoprotective compositions containing Malassezia-derived compounds and/or chemical analogs thereof” (Versicolor Technologies, LLC, priority 2018, dated 2022).
Values joined by “and” are separate entries in the source; they are usually repeats but may differ in a detail not shown here. Identical values can stand only once. Like-named read-outs stand apart in the source and are kept apart here.

Assays:
[1] = target: T1, arylhydrocarbon receptor (AhR) (Homo sapiens, UniProt P35869); parameters: HepG2 cells stably transfected with an AhR-responsive luciferase reporter gene plasmid; host or cells: HepG2-AhR-Luc (HepG2 stably transfected with an AhR-responsive luciferase reporter plasmid); settings: cited from earlier work
T1 sequence (P35869 11-848): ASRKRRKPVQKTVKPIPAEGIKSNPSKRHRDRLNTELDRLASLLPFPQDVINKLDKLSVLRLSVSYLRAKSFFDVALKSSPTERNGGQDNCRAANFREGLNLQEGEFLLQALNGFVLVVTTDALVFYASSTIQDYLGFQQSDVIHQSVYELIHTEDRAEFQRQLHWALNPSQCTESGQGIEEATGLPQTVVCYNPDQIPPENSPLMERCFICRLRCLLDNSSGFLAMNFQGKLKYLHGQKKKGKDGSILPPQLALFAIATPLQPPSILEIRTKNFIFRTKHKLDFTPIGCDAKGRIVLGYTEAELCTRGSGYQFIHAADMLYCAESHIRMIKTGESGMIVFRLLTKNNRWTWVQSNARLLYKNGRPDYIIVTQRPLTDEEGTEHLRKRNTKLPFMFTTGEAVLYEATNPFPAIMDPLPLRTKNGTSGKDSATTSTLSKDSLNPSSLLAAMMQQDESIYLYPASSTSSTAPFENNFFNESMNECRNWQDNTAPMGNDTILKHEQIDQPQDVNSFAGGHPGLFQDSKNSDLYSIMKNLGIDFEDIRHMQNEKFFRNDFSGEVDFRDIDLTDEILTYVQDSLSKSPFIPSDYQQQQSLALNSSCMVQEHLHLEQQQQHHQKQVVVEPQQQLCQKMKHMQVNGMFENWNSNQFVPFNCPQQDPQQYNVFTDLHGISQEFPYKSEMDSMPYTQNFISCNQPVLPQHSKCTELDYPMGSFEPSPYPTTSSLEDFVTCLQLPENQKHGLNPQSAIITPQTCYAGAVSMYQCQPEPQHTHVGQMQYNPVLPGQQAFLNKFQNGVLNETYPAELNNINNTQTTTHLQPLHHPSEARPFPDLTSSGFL

[2] = target: T1, arylhydrocarbon receptor (AhR); assay: HepG2-AhR-Luciferase assay
Experimental: HepG2-AhR-Luc cells were purchased from Pharmaron, One-Glo Luciferase assay system was purchased from Promega. DMEM was purchased from Hyclone, and penicillin/streptomycin was purchased from Solabio.
Culture media for stably transfected HepG2 cells was prepared by supplementing DMEM with high glucose and L-glutamine, as well as 10% FBS.
HepG2-AhR-Luc cells were cultured in T-75 flasks at 37° C., 5% CO2, and 95% relative humidity. Cells were allowed to reach 80-90% confluence before detachment and splitting.
Cultivated cells were rinsed with 5 mL PBS. PBS was aspirated away, 1.5 mL trypsin was added to the flask, and cells were incubated at 37° C. for approximately 5 minutes or until the cells detached and floated. Trypsin was inactivated by adding excess serum-containing media.
The cell suspension was transferred to a conical tube and centrifuged at 120 g for 10 minutes to pellet the cells. Cells were resuspended in seeding media at a proper density. 40 μL of cells were transferred to a 384-well culture plate (5×10^3 cells/well). Plates were placed in the incubator at 37° C. for 24 hours.
Afterward, stock solutions of test compounds and omeprazole positive control were prepared. Compound solutions were transferred into the assay plate using Echo550. The plate was then placed back into the incubator for compound treatment.
Later, after 24 hours of treatment, the plate was removed from the incubator and allowed to cool at ambient temperature. 30 μL One-Glo reagent equal to that of the culture medium was added in each well. Cells were allowed to lyse for at least 3 minutes, and then measured in a luminometer.
Dose responses were graphed using the non-linear regression analysis in XLfit and EC50 values were also calculated.

[3] = test system: WM115 cells; assay: Cell morphology after treatment (Example 6); type: cell-based; settings: 100 μM, 6 hours
[4] = test system: WM115 cells; assay: Annexin V assay, additional evaluation (Example 8); type: cell-based; settings: 100, 10, 1 μM; 6, 24, 48, 72 hours
Experimental: (§1) To further investigate the impact of test compounds on apoptosis, multiple readouts, covering different stages of apoptosis, were carried out on both MeWo and WM115 cells. Both cell types were treated with test compounds at 3 doses (100 μM, 10 μM, and 1 μM). Staurosporine was used as a positive control. […] The test compounds evaluated were CV-8684. CV-8685, and CV-8688.
(§2) Cell seeding was performed as discussed above with the following exceptions: the final cell density was 4,000 cells/well for 6-hour and 24-hour detections, whereas 2,000 cells/well were used for 48-hour and 72-hour detections. For each time point. 384-well clear bottom plates (Corning 3712) and solid white bottom plates (Corning 3570) were prepared. The plates were incubated as discussed above.
(§3) For preparation of the compound source plate, each test compound was dissolved in DMSO to 10 mM stock. Two additional concentrations were generations by 10-fold dilution to 1 mM and 0.1 mM. Staurosporine was used as positive control and 1% DMSO was employed as vehicle (negative) control. The compound source plate was spun at room temperature at 1,000 RPM for 1 minute and agitated using a plate shaker for 2 minutes.
(§4) 400 nL of test compound was transferred from the compound source plate to 384-well culture plates using Echo550 liquid handler. After 6, 24, 48, and 72 hours, the plates were removed from the incubator for detections.
(§5) Culture media was removed and cells were washed twice with PBS. 20 μL of pre-mixed annexin V-FITC working solution was added to each well. The cells were incubated at room temperature for 20 minutes. Plates were read using Acumen eX3 to count the number of FITC-positive cells. The relative activity was calculated according to the following formula: Relative Activity (%)=100%×(Countsample/Countvehicle).

[5] = test system: MeWo cells; assay: Annexin V assay, additional evaluation (Example 8); type: cell-based; settings: 100, 10, 1 μM; 6, 24, 48, 72 hours
Experimental: as §1, §2, §3, §4, §5

[6] = test system: WM115 cells; assay: CellTiter-Glo cell viability assay (Example 9); type: cell-based; settings: 100, 10, 1 μM; 6, 24, 48, 72 hours
Experimental: (§6) CellTiter-Glo® 2.0 assay was purchased from Promega. Cell seeding, preparation of the compound source plate, and exposure of cells to test compounds were performed as described in Example 8.
(§7) CellTiter-Glo® reagents were thawed and equilibrated to room temperature before the experiment. 40 μL of CellTiter-Glo® reagent was then added to each well for detection (at 1:1 ratio to culture medium). The plates were then incubated at room temperature for 30 minutes and read using EnSpire (PerkinElmer) plate reader. The remaining activity was calculated according to the following formula: Remaining Activity (%)=100%×(Lumsample−Lumbkg)/(Lumvehicle−Lumbkg).

[7] = test system: MeWo cells; assay: Cell morphology after treatment (Example 6); type: cell-based; settings: 100 μM, 6 hours
[8] = test system: MeWo cells; assay: CellTiter-Glo cell viability assay (Example 9); type: cell-based; settings: 100, 10, 1 μM; 6, 24, 48, 72 hours
Experimental: as §6, §7

[9] = test system: WM115 cells; assay: Lactate dehydrogenase (LDH) release assay (Example 10); type: cell-based; settings: 100, 10, 1 μM; 6, 24, 48, 72 hours
Experimental: (§8) The LDH assay quantitatively measures lactate dehydrogenase (“LDH”) released into the media from damaged cells as a biomarker for cytotoxicity and cytolysis.
(§9) CytoTox-ONE™ Homogenous Membrane Integrity Assay was purchased from Promega. Cell seeding, preparation of the compound source plate, and exposure of cells to test compounds were performed as described in Example 8.
(§10) Plates were then centrifuged at 1,000 RPM for 1 minute. 20 μL of cell culture medium was transferred into a new 384-well black solid plate. Then, 20 μL of CytoTOX-ONE™ was added into each well and incubated at room temperature for 10 minutes. Afterward, 10 μL of stop solution were added to each well, and the plates were agitated at 500 rpm for 1 minute. Plates were read using an excitation wavelength of 560 nm and an emission wavelength of 590 nm on EnSpire. The relative activity was calculated according to the following formula: Relative Activity (%)=100%×(Lumsample−Lumbkg)/(Lumvehicle−Lumbkg).

[10] = test system: MeWo cells; assay: as above; type: cell-based; settings: 100, 10, 1 μM; 6, 24, 48, 72 hours
Experimental: as §8, §9, §10

[11] = test system: staphylococci; settings: cited from earlier work
[12] = test system: Candida albicans; settings: cited from earlier work
[13] = cited from earlier work
[14] = EC50 (uM), Table 2, 24 hours of treatment
[15] = EC50 (uM), Table 1, 24 hours of treatment

O=Cc1c2[nH]c3ccccc3c2cc2[nH]c3ccccc3c12 [6-formylindolo[3,2-b] carbazole (FICZ), 6-formylindolo[3,2-b] carbazole]
AhR agonism [1]: Agonists

O=C(Cc1c[nH]c2ccccc12)Cc1c[nH]c2ccccc12 [AB12976]
EC50 [2, 14]: 16.5 µM

O=C[C@@H]1Cc2c([nH]c3ccccc23)[C@@H](c2c[nH]c3ccccc23)CN1 [AB17011, Malassezia Indole A]
EC50 [2, 14]: 35.8 µM

O=C(c1c[nH]c2ccccc12)c1nccc2c1[nH]c1ccccc12 [AB17014, Pityriacitrin]
EC50 [2, 14]: 3.46 µM

COC(=O)c1c(C(c2c[nH]c3ccccc23)C2CC2)[nH]c2ccccc12 (stereo not drawn) [AB17151]
EC50 [2, 14]: 13.7 µM

Cc1ccc2c(c1)[nH]c1c(C)c3c(cc12)[nH]c1ccccc13 [AB17225]
EC50 [2, 14]: 3.93 µM

O=Cc1c(Cc2c[nH]c3ccccc23)[nH]c2ccccc12 [CV-8684, Malassezin]
cell morphology [3]: significantly affected | apoptosis induction (annexin V binding) [4]: induced apoptosis at the highest concentration tested after 6 hours of treatment | apoptosis induction (annexin V binding) [5]: induced apoptosis at the highest concentration tested after 6 hours of treatment | EC50 [2, 15]: 4.19 µM | inhibition of cell viability [6]: dose-dependent inhibition of cell viability | cell morphology [7]: significantly affected | inhibition of cell viability [8]: dose-dependent inhibition of cell viability | LDH release [9]: did not induce significant release | LDH release [10]: did not induce significant release

c1ccc2c(c1)[nH]c1cc3c(cc12)[nH]c1ccccc13 [CV-8685, indolo[3,2-b] carbazole]
cell morphology [3]: only affect WM115 | apoptosis induction (annexin V binding) [4]: showed the induction effect with 24 hours of treatment | apoptosis induction (annexin V binding) [5]: 48 hours of treatment appeared to elicit apoptosis | EC50 [2, 15]: 6.6 µM | EC50 [2, 14]: 15.2 µM | inhibition of cell viability [6]: inhibitory effect on WM115 cell viability in a dose-dependent manner only after 24-hour treatment | LDH release [9]: dose-dependent induction effect on LDH release

OCc1c(Cc2c[nH]c3ccccc23)[nH]c2ccccc12 [CV-8803]
EC50 [2, 15]: 13.9 µM

CC(c1[nH]c2ccccc2c1CO)c1c[nH]c2ccccc12 (stereo not drawn) [CV-8804]
EC50 [2, 15]: 15.7 µM

Cc1ccc2cc3c(ccc4ccccc43)c3c2c1CC3 [Compound 3-MC, 3-methylcholanthrene, reference compound]
EC50 [2]: 4.34 µM

O=Cc1c(C(=O)c2c[nH]c3ccccc23)[nH]c2ccccc12 [Compound A5 (CV-8819)]
EC50 [2, 14]: 4.11 µM

CC(c1[nH]c2ccccc2c1C(=O)O)c1c[nH]c2ccccc12 (stereo not drawn) [Compound B10]
EC50 [2, 14]: 4.29 µM

COC(c1[nH]c2ccccc2c1C=O)c1c[nH]c2ccccc12 (stereo not drawn) [Compound H (AB12509)]
EC50 [2, 14]: 11.6 µM

Cc1ccc2c(Cc3[nH]c4ccccc4c3C=O)c[nH]c2c1 [Compound I (CV-8686)]
EC50 [2, 14]: 5.45 µM

CC(c1[nH]c2ccccc2c1C=O)c1c[nH]c2ccccc12 (stereo not drawn) [Compound II (CV-8688]
EC50 [2, 14]: 13.4 µM

Cc1ccc2c(c1)[nH]c1cc3c(cc12)[nH]c1ccccc13 [Compound IV (CV-8687)]
EC50 [2, 14]: 33.6 µM

O=C1Nc2ccccc2/C1=C1/Nc2ccccc2C1=O [Indirubin]
AhR agonism [1]: known agonist

c1ccc2[nH]c(Cc3c[nH]c4ccccc34)cc2c1 [Malassezin Precursor]
EC50 [2, 14]: 37.3 µM

COc1ccc2[nH]c([S+]([O-])Cc3ncc(C)c(OC)c3C)nc2c1 (stereo not drawn) [Omeprazole, omeprazole, reference compound]
EC50 [2, 15]: 21.4 µM | EC50 [2, 14]: 42.3 µM and 39.8 µM

Clc1cc2c(cc1Cl)Oc1cc(Cl)c(Cl)cc1O2 [TCDD, 2,3,7,8-tetrachlorodibenzodioxin, reference compound]
EC50 [2, 14]: 0.0018 µM and 0.0031 µM

Nc1c(C(=O)O)c2nc3c(C(=O)O)cccc3oc-2cc1=O [cinnabarinic acid]
AhR agonism [1]: Agonists

Nc1ccccc1C(=O)CC(N)C(=O)O (stereo not drawn) [kynurenine]
AhR agonism [1]: Agonists

Pityriacitrin
UV-protective effect [11]: UV-protective effect | toxicity [11]: no toxicity | UV-protective effect [12]: UV-protective effect | toxicity [12]: no toxicity | SPF ([13]; 1.25% cream): 1.4 | SPF ([13]; 2.5% cream): 1.5 | SPF ([13]; 5% cream): 1.7
